Source: patent US20240252488A1 (KOREA RESEARCH INSTITUTE OF CHEMICAL TECHNOLOGY, priority 2020, published 2024)

Assays:
MLKL [1] = target: T1, MLKL (Homo sapiens, UniProt Q8NB16); assay: Measurement of binding affinity with MLKL receptor (competitive binding assay, Kd); parameters: made in house; host or cells: HEK 293 cell line (T7 phage in E. coli BL21-derived host is also described)
T1 sequence (Q8NB16 1-471): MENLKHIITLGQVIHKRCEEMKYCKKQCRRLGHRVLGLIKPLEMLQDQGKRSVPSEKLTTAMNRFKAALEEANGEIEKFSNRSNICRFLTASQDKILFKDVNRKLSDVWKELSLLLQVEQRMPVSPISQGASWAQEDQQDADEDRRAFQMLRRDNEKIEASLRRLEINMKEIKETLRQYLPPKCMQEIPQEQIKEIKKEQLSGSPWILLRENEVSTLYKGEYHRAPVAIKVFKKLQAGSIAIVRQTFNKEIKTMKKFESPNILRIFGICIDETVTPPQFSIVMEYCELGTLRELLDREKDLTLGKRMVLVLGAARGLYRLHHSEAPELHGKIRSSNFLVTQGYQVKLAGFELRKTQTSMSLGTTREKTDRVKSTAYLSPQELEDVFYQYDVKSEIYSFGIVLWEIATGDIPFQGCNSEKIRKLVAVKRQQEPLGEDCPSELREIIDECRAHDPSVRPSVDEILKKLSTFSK
Summary of the method: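 qPCR of MLKL eluted from liganded beads served as the read-out, from which Kd was derived. The protein was made in HEK 293 cells with a DNA tag, and test compounds competed with the bead-bound ligand at 0.9% final DMSO.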

FADD−/− Jurkat cells = assay: Necroptosis inhibition assay, TNF-α-induced necroptosis (CellTiter-Glo 2.0); type: cell-based, human; conditions: TNF-α 15 ng/mL, FADD−/− Jurkat cells; for Necroptosis inhibition assay (Rescue %) 1 μM: compound 1 μM; for Necroptosis inhibition assay (Rescue %) 10 μM: compound 10 μM
Summary of the method: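 Necroptosis induced by 15 ng/mL TNF-α (final) for 20–24 h at 37 °C, after a 30 min room-temperature pretreatment of FADD-deficient Jurkat cells with 0.1, 1 or 10 μM compound. ATP-based luminescence gave viability, from which inhibition rate and cytotoxicity were derived.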

MLKL [2] = target: T1, MLKL; assay: MLKL degradation assay in HepG2 cell line (western blot); type: cell-based; parameters: endogenous in cells; host or cells: HepG2 or HaCaT; conditions: cell line not given; for Degradation assay (Degradation %) 1 μM: compound 1 μM; for Degradation assay (Degradation %) 10 μM: compound 10 μM
Summary of the method: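 Western blot chemiluminescence of MLKL in equal-protein lysates (10-15 μg, BCA-adjusted). Before lysis, HepG2 cells were exposed to 1 or 10 μM (final) test compound for 20-24 h at 37 °C.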

Structure (SMILES) | Kd (MLKL [1]) [nM] | Necroptosis inhibition assay (Rescue %) 1 μM (FADD−/− Jurkat cells) [%] | Necroptosis inhibition assay (Rescue %) 10 μM (FADD−/− Jurkat cells) [%] | Degradation assay (Degradation %) 1 μM (MLKL [2]) [%] | Degradation assay (Degradation %) 10 μM (MLKL [2]) [%]
COc1ccc(C(=O)N2CCC(C(=O)N3CCC(CCN4CCC(CN5CCC(n6cc(-c7cnc(N)c(C(=O)O[C@@H](C(=O)Nc8ccc(F)cc8)c8ccccc8)n7)cn6)CC5)CC4)CC3)CC2)cc1N1CCC(=O)NC1=O [TDH-502, (R)-2-((4-fluorophenyl)amino)-2-oxo-1-phenylethyl 3-amino-6-(1-(1-((1-(2-(1-(1-(3-(2,4-dioxotetrahydropyrimidin-1(2H)-yl)-4-methoxybenzoyl)piperidine-4-carbonyl)piperidin-4-yl)ethyl)piperidin-4-yl)methyl)piperidin-4-yl)-1H-pyrazol-4-yl)pyrazine-2-carboxylate] | 0.42 | 54.75 | 66.18 | 85.39 | 91.54
Nc1ncc(-c2cnn(C3CCN(C(=O)CC4CCN(C(=O)CCc5cccc6c5CN(C5CCC(=O)NC5=O)C6=O)CC4)CC3)c2)nc1C(=O)O[C@@H](C(=O)Nc1ccc(F)cc1)c1ccccc1 (stereo partly drawn) [TDH-404, (R)-2-((4-fluorophenyl)amino)-2-oxo-1-phenylethyl 3-amino-6-(1-(1-(2-(1-(3-(2-(2,6-dioxopiperidin-3-yl)-1-oxoisoindolin-4-yl)propanoyl)piperidin-4-yl)acetyl)piperidin-4-yl)-1H-pyrazol-4-yl)pyrazine-2-carboxylate] | 1.1 | 26.83 | 49.11 | 45.30 | 79.08
Nc1ncc(-c2cnn(C3CCN(C4CC5(CCN(CC6CCN(c7ccc8c(c7)C(=O)N(C7CCC(=O)NC7=O)C8=O)CC6)CC5)C4)CC3)c2)nc1C(=O)O[C@@H](C(=O)Nc1ccc(F)cc1)c1ccccc1 (stereo partly drawn) [TDH-472, (R)-2-((4-fluorophenyl)amino)-2-oxo-1-phenylethyl 3-amino-6-(1-(1-(7-((1-(2-(2,6-dioxopiperidin-3-yl)-1,3-dioxoisoindolin-5-yl)piperidin-4-yl)methyl)-7-azaspiro[3.5]nonan-2-yl)piperidin-4-yl)-1H-pyrazol-4-yl)pyrazine-2-carboxylate] | 1.6 | 27.45 | 1.07 | 50.63 | 69.94
COc1ccc(C(=O)N2CCC(CN3CCC4(CC3)CC(N3CCC(n5cc(-c6cnc(N)c(C(=O)O[C@@H](C(=O)Nc7ccc(F)cc7)c7ccccc7)n6)cn5)CC3)C4)CC2)cc1N1CCC(=O)NC1=O [TDH-499, (R)-2-((4-fluorophenyl)amino)-2-oxo-1-phenylethyl 3-amino-6-(1-(1-(7-((1-(3-(2,4-dioxotetrahydropyrimidin-1(2H)-yl)-4-methoxybenzoyl)piperidin-4-yl)methyl)-7-azaspiro[3.5]nonan-2-yl)piperidin-4-yl)-1H-pyrazol-4-yl)pyrazine-2-carboxylate] | 0.41 | 45.83 | 11.8 | 90.60 | 91.41
